This note sets out measurements from the SangsterLogP compilation.

For orientation: logP means the decadic logarithm of the partition coefficient of the neutral form, usually between octanol and water. One may read the logD as lipophilicity at a set pH, counting ionised and neutral species. A low value points to a more hydrophilic compound.

A short description of data set [1]: from Courrière, P.; Paubel, J.P.; Nivière, P.; Foussard-Blaspin, O. (1978). Structure-activity study in a series of local anesthetic agents. I. Physicochemical properties and molecular orbital study. ….
Data set [2] in a line: method code SF-AS, from PMID: 7306420. Particulars: pH 7.5.
Data set [3] can be described thus: method code SF-AS, from PMID: 7460030. The conditions noted are these: pH 7.3.
A short description of data set [4]: method code SF-RC, from DOI: 10.1016/j.nucmedbio.2008.04.004, PMID: 18589308. Particulars: pH 7.4.
Test in data set [5]: not given
The source holds these as a separate data set.

Test in data set [6]: not given
This is another data set of the same source.

Test in data set [7]: not given
This is another data set of the same source.

Data set [8] is described as follows: method code SF-HPLC, from DOI: 10.1016/j.ejps.2016.07.010, PMID: 27422078. Particulars: pH 7.4.
A short description of data set [9]: from Zeng, J.; Huang, T.; Li, F.; Zhu, Z.; Chen, L.; Feng, L. (2014). Determination of apparent oil-water partition coefficient and equilibrium solubility of levonorgestrel and gestodene by RP-HPLC. ….
Test in data set [10]: not given
This is another data set of the same source.

Test in data set [11]: not given
This is another data set of the same source.

Test in data set [12]: not given
The source holds these as a separate data set.

Data set [13] in a line: method code SF-AS, from DOI: 10.1016/0014-2999(72)90235-x, PMID: 4113999.
Test in data set [14]: not given
The source holds these as a separate data set.

Test in data set [15]: not given
This is another data set of the same source.

Data set [16] in a line: method code SF-AS, from DOI: 10.3109/00498258809055142, PMID: 3354228.
Data set [17] in a line: method code SF-RC, from PMID: 447850. The conditions noted are these: pH 7.4.
Test in data set [18]: not given
This is another data set of the same source.

Data set [19] in a line: method code SF-RC, from DOI: 10.1016/j.nucmedbio.2006.10.003, PMID: 17210465. The conditions noted are these: pH 7.4.
Data set [20] can be described thus: method code SF-LC/MS, from DOI: 10.1002/rcm.3594, PMID: 18543375. Particulars: pH 7.4.
Data set [21] is described as follows: method code SF, from DOI: 10.1016/s0223-5234(00)80025-2, PMID: 11278041. The conditions noted are these: pH 7.4.
Test in data set [22]: not given
This is another data set of the same source.

Data set [23] is described as follows: method code SF, from DOI: 10.1002/syn.20842. The conditions noted are these: pH 7.4.
Test in data set [24]: not given
This is another data set of the same source.

Data set [25] is described as follows: method code SF-RC, from DOI: 10.1002/jlcr.3239, PMID: 25359578. The conditions noted are these: pH 7.4.
Data set [26] can be described thus: method code SF, from DOI: 10.1016/0014-2999(77)90010-3, PMID: 336381. The conditions noted are these: pH 9.8.
Data set [27] can be described thus: method code SF-AS, from PMID: 7271269. The conditions noted are these: pH 6.0.
A short description of data set [28]: method code SF-RC, from DOI: 10.1016/j.nucmedbio.2013.04.008, PMID: 23731552. The conditions noted are these: pH 7.4.
Test in data set [29]: not given
This is another data set of the same source.

Data set [30] in a line: from Letourneux, Y.; Sparfel, L.; Roussakis, C.; Piessard, S.; LeBaut, G. (1984). Pyrophthalones. VI. Derivatives of (N-alkyldihydro-1,4-pyridinyliden-4-yl)-2-indanedione-1,3. Search for antitumor …. Particulars: pH 7.4.
Data set [31] in a line: method code SF-HPLC, from DOI: 10.1016/j.ejps.2006.07.007, PMID: 16997537. Particulars: pH 7.4.
Test in data set [32]: not given
This is another data set of the same source.

A short description of data set [33]: method code SF, from DOI: 10.1021/jm00169a014, PMID: 2362268. The conditions noted are these: pH 7.4.
Data set [34] can be described thus: method code SF, from PMID: 3183.
Test in data set [35]: not given
This is another data set of the same source.

Data set [36] is described as follows: method code SF-AS, from DOI: 10.1081/jlc-120004751.
Test in data set [37]: not given
The source holds these as a separate data set.

Test in data set [38]: not given
The source holds these as a separate data set.

Data set [39] in a line: method code SF-RC, from DOI: 10.1002/jlcr.3404, PMID: 27126914. The conditions noted are these: pH 7.4.
Data set [40] in a line: method code SF-RC, from DOI: 10.1016/j.nucmedbio.2009.01.009, PMID: 19423014. Particulars: pH 7.4.

Turning to `CCN(CC)CCCN(C(=O)Cc1ccccc1)c1c(C)cccc1C`, the logP in data set [1] was 4.94.

`CS(=O)(=O)c1ccc2c(c1)N(CCCN1CCC(C(N)=O)CC1)c1ccccc1S2` came in with a logD in data set [2] of 2.02.

Compound `CC(C)(C)CC(=O)N1CCC(N(c2ccc(C(F)(F)F)cc2)c2cccnc2)CC1` displayed a logP of 4.2.

In turn, `CCCCCOc1cccc(NC(=O)OC2CCCCC2)c1-n1ccnc1` yielded a logD in data set [3] of 3.38.

In data set [4], `O=C(OC[C@@H]1O[C@H](n2cc(Br)c(=O)[nH]c2=O)[C@H](F)[C@H]1OC(=O)c1ccccc1)c1ccccc1` yielded a logD of 3.95.

Take `Oc1ccc2ccccc2c1/N=N/c1ccc(/N=N/c2ccccc2)cc1`: in [5], the logP came out at 2.11.

Consider `CC(=O)O[C@]1(C(C)=O)CC[C@H]2[C@@H]3C[C@H](F)C4=CC(=O)CC[C@]4(C)[C@H]3CC[C@@]21C`, for which the logP in data set [6] was 3.48.

In the case of `CN(C)Cc1ccc(CSCCNc2[nH]cc(Cc3ccccc3)c2[N+](=O)[O-])o1`, the logP in [7] is 3.65.

The compound `Cc1cc(=O)c2c(O)cc(O)c(C3CCN(C)CC3OC(=O)c3ccccc3)c2o1` (stereo unspecified) registered a logD in [8] of 2.33.

Regarding `C#C[C@]1(O)C=C[C@H]2[C@@H]3CCC4=CC(=O)CC[C@@H]4[C@H]3CC[C@@]21CC`, the logP in data set [9] came out at 3.45.

In data set [10], `FCCOc1ccc(CN2CCN(Cc3cc4ccccc4o3)CC2)cc1` returned a logP of 3.35.

In the case of `COc1cccc([C@H](O)C2CCN(CCc3ccc(F)cc3)CC2)c1OC`, the logP in data set [11] came to 3.8.

In the case of `CNC(=O)c1ccc(Oc2ccc3c(c2)CCN(C2CCC2)CC3)nc1`, the logP in data set [12] worked out at 2.24.

In turn, `OCCN1CCN(CCC=C2c3ccccc3Sc3ccc(Cl)cc32)CC1` yielded a logP in data set [13] of 3.

In data set [14], `FCCC1OC2(CCN(Cc3ccccc3)CC2)c2ccccc21` (stereo unspecified) came in with a logP of 3.58.

In the case of `c1cc2ccc3ccc4ccc5ccc6ccc1c1c2c3c4c5c61`, the logP in data set [15] was 7.64.

`OCCN1CCN(CCCN2c3ccccc3C=Cc3ccccc32)CC1`: the logP in [16] worked out at 3.

Regarding `C[C@]12CCC(=O)C=C1CC[C@@H]1[C@@H]2[C@@H](O)C[C@]2(C=O)[C@@H](C(=O)CO)CC[C@@H]12`, the logD in data set [17] was 1.08.

Turning to `COc1cc2nc(N3CCN(C(=O)C4COc5ccccc5O4)CC3)nc(N)c2cc1OC` (stereo unspecified), the logP in data set [18] was found to be 3.38.

Turning to `CN(C)c1ccc(/C=C/c2ccc(OCCOCCOCCF)nc2)cc1`, the logD in data set [19] stood at 3.22.

In turn, `COc1cc2c(c(OC)c1OC)-c1ccc(OC)c(=O)cc1[C@@H](NC(C)=O)CC2` displayed a logD in [20] of 1.08.

`CC(C)Cc1ccc(C(C)C(=O)OCN2C(=O)C(=O)c3ccccc32)cc1` (stereo unspecified) registered a logD in data set [21] of 4.23.

In the case of `CN1CCc2cc(Cl)c(O)cc2[C@@H](c2ccc(SCc3ccccc3)cc2)C1`, in data set [22], the logP came to 3.78.

For the compound `CCCS(=O)(=O)N1CCC(CNC(=O)c2ccc(Cl)cc2Cl)(c2cccc(F)n2)CC1`, the logD in [23] was determined as 2.9.

`Cc1cc(C(=O)Nc2ccc(-c3ccccc3S(N)(=O)=O)cc2)n(-c2ccc3onc(N)c3c2)n1` returned a logP in data set [24] of 2.1.

Consider `O=C(NCCF)Nc1ccc(-c2nc(N3CC4CCC(C3)O4)c3cnn(CC(F)(F)F)c3n2)cc1`, for which the logD in [25] stood at 1.9.

On to `O=c1[nH]c2ccccc2n1C1CCN(C[C@@H](O)[C@@H]2COc3ccccc3O2)CC1` (relative stereo), for which the logD in data set [26] turned out to be 3.43.

Compound `COCOC(=O)C1N2C(=O)C(N3C(=O)C(c4ccc(O)cc4)NC3(C)C)C2SC1(C)C` (stereo unspecified) displayed a logD in data set [27] of 0.3.

In the case of `O=C(Nc1cccnn1)N1CCC(=Cc2cccc(Oc3ccc(C(F)(F)F)cn3)c2)CC1`, the pH-dependent lipophilicity (logD) in data set [28] amounted to 3.48.

For the compound `CN1CN(c2ccccc2)C2(CCN(CCCC(=O)c3ccc(I)s3)CC2)C1=O`, the logP in data set [29] is 3.14.

The compound `CC1=CC(=C2C(=O)c3ccccc3C2=O)C=C(C)N1CCCNC(=O)N(CCCl)N=O` displayed a logD in [30] of 2.84.

On to `CCOC(=O)C1OC(Oc2cc3oc(-c4ccc(O)cc4)cc(=O)c3c(O)c2O)C(O)C(O)C1O` (stereo unspecified), for which the logD in [31] was 2.37.

Compound `COCCOC(=O)C1=C(C)NC(C)=C(C(=O)OC(C)C)C1c1cccc([N+](=O)[O-])c1` (stereo unspecified) gave a logP in [32] of 2.82.

In the case of `CC(=O)Oc1ccc(C(c2ccc(OC(C)=O)cc2)c2ccccn2)cc1`, the log distribution coefficient (logD) in data set [33] is 2.64.

In data set [34], `CCCCC(CC)CN1CN(CC(CC)CCCC)CC(C)(N)C1` (stereo unspecified) displayed a logP of 2.05.

In [35], `O=C1C(=O)c2ccccc2C(O)=C1C1CCC(c2ccc(Cl)cc2)CC1` (stereo unspecified) yielded a logP of 5.07.

On to `Cc1cn(C2CC(N=[N+]=[N-])C(COC(=O)C(=O)NC(Cc3c[nH]c4ccccc34)C(=O)O)O2)c(=O)[nH]c1=O` (stereo unspecified), for which the lipophilicity (logP) in data set [36] came to 0.67.

In data set [37], `C=CCn1nc(-c2sc(NC(=O)C(C)(C)C)nc2C)cc1C(=O)NCc1ccccc1` showed a logP of 4.33.

`COc1cc(C2c3cc4c(cc3C(O)C3COC(=O)C23)OCO4)cc(OC)c1OC` (stereo unspecified) yielded a lipophilicity (logP) in data set [38] of 2.01.

In data set [39], `COc1ccc2c(C3=C(c4cn(C)c5ccc(I)cc45)C(=O)NC3=O)coc2c1` had a logD of 3.23.

Regarding `CCCCOc1c(OC)ccc2cc(C(=O)NC3CCCCC3)c(=O)[nH]c12`, the logD in data set [40] was 3.9.
